Measured values reported in patent publication US20080274522A1, “METHOD FOR THE PRODUCTION OF 2-BUTANONE” (priority 2007, published 2008).

How the values were obtained:
[1] = test system: Erwinia amino alcohol O-phosphate lyase; experiment: Aminopropanol O-phosphate lyase assay (MBTH, OD670); format: biochemical, Erwinia carotovora subsp. atroseptica; settings: 10 mM substrate, 37° C.
Experimental: The pBAD.KA-AT plasmid was transformed into the E. coli TOP10 strain. A 50 mL culture of TOP10/pBAD.KA-AT strain was grown to mid log phase (OD600=0.6) in LB, 100 μg/mL ampicillin media at 37° C. with shaking at 250 rpm. The culture was induced by addition of L-arabinose to a final concentration of 0.1% (w/v), and it was further incubated at 37° C. for 5 h before harvesting by centrifugation. The cell pellet was resuspended in ice cold 50 mM Tris-HCl, pH 8.0, and disrupted by sonication on ice with a Fischer Sonic Model 300 Dismembrator (Fischer, Pittsburgh, Pa.) at 50% power, repeating four cycles of 30 seconds sonication with 60 seconds rest in-between each cycle. Each sonicated sample was centrifuged (15,000×g, 4 min, 4° C.). Clarified cell free extracts were analyzed for protein expression level and amino alcohol O-phosphate lyase activity.
The aminopropanol O-phosphate lyase assay was performed as described by Jones et al. (1973, Biochem. J. 134:167-182) and G. Gori et al. (1995, Chromatographia 40:336) The formation of propionaldehyde from aminopropanol O-phosphate was assayed calorimetrically with MBTH, which allows the detection of aldehyde formation. The reaction was performed as follows. In a 1 mL reaction, 100 μg cell free extract of E. coli TOP10/pBAD.KA-AT was added to 10 mM DL-1-amino-2-propanol O-phosphate in 100 mM Tris-HCl, pH 7.8, with 0.1 mM PLP. The reaction was incubated at 37° C. for 10 min and 30 min, with an aliquot of 100 μL reaction mixture removed at each time point and mixed with 100 μL of 6 mg/mL MBTH in 375 mM glycine-HCl, pH 2.7. This mixture was incubated at 100° C. for 3 min, cooled on ice for 15-30 s, and 1 mL of 3.3 mg/mL FeCl3.6H2O (in 10 mM HCl) was added, followed by incubation for 30 min at room temperature. The absorbance of the reaction mixture which contains the aldehyde-MBTH adduct, was measured at 670 nm. In the presence of the aminopropanol phosphate substrate, PLP and cell free extract, formation of aldehyde was detected, as indicated by an Abs670 that was higher than the control background of up to 0.3. In the absence of either the substrate or the cell free extract, no aldehyde formation was detected. In the absence of added PLP, somewhat less amount aldehyde was detected, presumably due to the presence of PLP in the cell free extract.

[2] = test system: B12-independent diol dehydratase; settings: Hartmanis et al. (1986); cited from earlier work
[3] = test system: Lactobacillus plantarum PN0512; experiment: Growth of L. plantarum PN0512 in the presence of butanols at different temperatures (OD600); format: cell-based; set-up: key to Growth of L. plantarum PN0512 in the presence of 1-butanol / Growth of L. plantarum PN0512 in the presence of isobutanol / Growth of L. plantarum PN0512 in the presence of 2-butanol: +: growth observed as an increase in OD600.; −: no growth observed, i.e. no change in OD600
Experimental: Tolerance levels of bacterial strain Lactobacillus plantarum PN0512 (ATCC # PTA-7727) were determined at 25° C., 30° C. and 37° C. as follows. The strain was cultured in S30L medium (i.e., 10 mM ammonium sulfate, 5 mM potassium phosphate buffer, pH 7.0, 50 mM MOPS, pH 7.0, 2 mM MgCl2, 0.7 mM CaCl2, 50 μM MnCl2, 1 μM FeCl3, 1 μM ZnCl2, 1.72 μM CuCl2, 2.53 μM COCl2, 2.42 μM Na2MoO4, 2 μM thiamine hydrochloride, 10 mM glucose, and 0.2% yeast extract). An overnight culture in the absence of any test compound was started in 15 mL of the S30L medium in a 150 mL flask, with incubation at 37° C. in a shaking water bath. The next morning, the overnight culture was diluted into three 500 mL flasks containing 150 mL of fresh medium to an initial OD600 of about 0.08. Each flask was incubated in a shaking water bath, one each at 25° C., 30° C. and 37° C. Each large culture was allowed to acclimate at the test temperature for at least 0.5 h. […] Growth was followed by measuring OD600 for six hours after addition of the compounds.

[4] = test system: E. coli strain BW25113; experiment: Survival of E. coli in MEK shock; format: cell-based, Escherichia coli; settings: for % Survival at 28° C. / % Survival at 37° C.: 30 min, average of duplicate experiments
Experimental: Survival of MEK shock was tested at exposure temperatures of 28° C. or 37° C.

[5] = Sample 2: induced cell free extract, PLP (+)
[6] = Sample 4: induced cell free extract, PLP (−)

## CC(CN)OP(=O)(O)O (racemic) [Aminopropanol O-phosphate, DL-1-amino-2-propanol O-phosphate]
[1]; [5]
  OD670, 10 min: 1.229
  OD670, 30 min: 2.264
[1]; [6]
  OD670, 10 min: 0.855
  OD670, 30 min: 1.454

## CC(O)C(C)O (centres unmarked) [2,3-butanediol]
[2]
  Activity relative to the activity towards ethanediol: less than 1%

## CCC(C)O (centres unmarked) [2-butanol]
[3]; 1.8 % w/v, 37° C.
  Growth of L. plantarum PN0512 in the presence of 2-butanol: +
[3]; 2.1 % w/v, 37° C.
  Growth of L. plantarum PN0512 in the presence of 2-butanol: +
[3]; 2.9 % w/v, 25° C.
  Growth of L. plantarum PN0512 in the presence of 2-butanol: +
[3]; 2.9 % w/v, 30° C.
  Growth of L. plantarum PN0512 in the presence of 2-butanol: +
[3]; 2.9 % w/v, 37° C.
  Growth of L. plantarum PN0512 in the presence of 2-butanol: +
[3]; 3.1 % w/v, 37° C.
  Growth of L. plantarum PN0512 in the presence of 2-butanol: +
[3]; 3.6 % w/v, 37° C.
  Growth of L. plantarum PN0512 in the presence of 2-butanol: +
[3]; 3.8 % w/v, 25° C.
  Growth of L. plantarum PN0512 in the presence of 2-butanol: +
[3]; 3.8 % w/v, 30° C.
  Growth of L. plantarum PN0512 in the presence of 2-butanol: +
[3]; 3.8 % w/v, 37° C.
  Growth of L. plantarum PN0512 in the presence of 2-butanol: +
[3]; 4.0 % w/v, 30° C.
  Growth of L. plantarum PN0512 in the presence of 2-butanol: +
[3]; 4.3 % w/v, 25° C.
  Growth of L. plantarum PN0512 in the presence of 2-butanol: +
[3]; 4.3 % w/v, 30° C.
  Growth of L. plantarum PN0512 in the presence of 2-butanol: +
[3]; 4.3 % w/v, 37° C.
  Growth of L. plantarum PN0512 in the presence of 2-butanol: +
[3]; 4.7 % w/v, 25° C.
  Growth of L. plantarum PN0512 in the presence of 2-butanol: +
[3]; 4.7 % w/v, 30° C.
  Growth of L. plantarum PN0512 in the presence of 2-butanol: +
[3]; 4.7 % w/v, 37° C.
  Growth of L. plantarum PN0512 in the presence of 2-butanol: −
[3]; 4.9 % w/v, 25° C.
  Growth of L. plantarum PN0512 in the presence of 2-butanol: +
[3]; 4.9 % w/v, 30° C.
  Growth of L. plantarum PN0512 in the presence of 2-butanol: −
[3]; 5.2 % w/v, 25° C.
  Growth of L. plantarum PN0512 in the presence of 2-butanol: +
[3]; 5.2 % w/v, 37° C.
  Growth of L. plantarum PN0512 in the presence of 2-butanol: −
[3]; 5.6 % w/v, 25° C.
  Growth of L. plantarum PN0512 in the presence of 2-butanol: −
[3]; 5.6 % w/v, 37° C.
  Growth of L. plantarum PN0512 in the presence of 2-butanol: −
[3]; 6.0 % w/v, 37° C.
  Growth of L. plantarum PN0512 in the presence of 2-butanol: −
[3]; 6.4 % w/v, 37° C.
  Growth of L. plantarum PN0512 in the presence of 2-butanol: −
[3]; 7.3 % w/v, 37° C.
  Growth of L. plantarum PN0512 in the presence of 2-butanol: −
[3]; 25° C.
  Concentration in which growth was observed: 5.2%
[3]; 30° C.
  Concentration in which growth was not observed: 4.9%
  Concentration in which growth was observed: 4.7%
[3]; 37° C.
  Concentration in which growth was not observed: 4.5%
  Concentration in which growth was observed: 4.3%
[3]; […] w/v, 30° C.
  Growth of L. plantarum PN0512 in the presence of 2-butanol: +

## CCC(C)=O [MEK, 2-butanone]
[4]; 28° C.
  Concentration with full survival: 6 % w/v
[4]; 37° C.
  Concentration with full survival: 4 % w/v
  Concentration with no survival: 6 % w/v
[4]; MEK 4 % w/v
  % Survival at 28° C.: 100%
  % Survival at 37° C.: 100%
[4]; MEK 6 % w/v
  % Survival at 28° C.: 100%
  % Survival at 37° C.: 0%
[4]; MEK 8 % w/v
  % Survival at 28° C.: 0.002%
  % Survival at 37° C.: 0%

## CC(C)CO [isobutanol]
[3]; 0.5 % w/v, 37° C.
  Growth of L. plantarum PN0512 in the presence of isobutanol: +
[3]; 1.0 % w/v, 37° C.
  Growth of L. plantarum PN0512 in the presence of isobutanol: +
[3]; 1.5 % w/v, 25° C.
  Growth of L. plantarum PN0512 in the presence of isobutanol: +
[3]; 1.5 % w/v, 30° C.
  Growth of L. plantarum PN0512 in the presence of isobutanol: +
[3]; 1.5 % w/v, 37° C.
  Growth of L. plantarum PN0512 in the presence of isobutanol: +
[3]; 1.6 % w/v, 37° C.
  Growth of L. plantarum PN0512 in the presence of isobutanol: +
[3]; 1.8 % w/v, 37° C.
  Growth of L. plantarum PN0512 in the presence of isobutanol: +
[3]; 2.0 % w/v, 25° C.
  Growth of L. plantarum PN0512 in the presence of isobutanol: +
[3]; 2.0 % w/v, 30° C.
  Growth of L. plantarum PN0512 in the presence of isobutanol: +
[3]; 2.0 % w/v, 37° C.
  Growth of L. plantarum PN0512 in the presence of isobutanol: +
[3]; 2.1 % w/v, 37° C.
  Growth of L. plantarum PN0512 in the presence of isobutanol: +
[3]; 2.3 % w/v, 37° C.
  Growth of L. plantarum PN0512 in the presence of isobutanol: +
[3]; 2.4 % w/v, 25° C.
  Growth of L. plantarum PN0512 in the presence of isobutanol: +
[3]; 2.4 % w/v, 30° C.
  Growth of L. plantarum PN0512 in the presence of isobutanol: +
[3]; 2.4 % w/v, 37° C.
  Growth of L. plantarum PN0512 in the presence of isobutanol: +
[3]; 2.7 % w/v, 25° C.
  Growth of L. plantarum PN0512 in the presence of isobutanol: +
[3]; 2.7 % w/v, 30° C.
  Growth of L. plantarum PN0512 in the presence of isobutanol: +
[3]; 2.7 % w/v, 37° C.
  Growth of L. plantarum PN0512 in the presence of isobutanol: +
[3]; 2.9 % w/v, 25° C.
  Growth of L. plantarum PN0512 in the presence of isobutanol: +
[3]; 2.9 % w/v, 30° C.
  Growth of L. plantarum PN0512 in the presence of isobutanol: +
[3]; 2.9 % w/v, 37° C.
  Growth of L. plantarum PN0512 in the presence of isobutanol: +
[3]; 3.1 % w/v, 25° C.
  Growth of L. plantarum PN0512 in the presence of isobutanol: +
[3]; 3.1 % w/v, 30° C.
  Growth of L. plantarum PN0512 in the presence of isobutanol: +
[3]; 3.1 % w/v, 37° C.
  Growth of L. plantarum PN0512 in the presence of isobutanol: +
[3]; 3.3 % w/v, 25° C.
  Growth of L. plantarum PN0512 in the presence of isobutanol: +
[3]; 3.3 % w/v, 30° C.
  Growth of L. plantarum PN0512 in the presence of isobutanol: −^2
[3]; 3.4 % w/v, 37° C.
  Growth of L. plantarum PN0512 in the presence of isobutanol: −
[3]; 3.6 % w/v, 25° C.
  Growth of L. plantarum PN0512 in the presence of isobutanol: −
[3]; 3.8 % w/v, 37° C.
  Growth of L. plantarum PN0512 in the presence of isobutanol: −
[3]; 4.3 % w/v, 37° C.
  Growth of L. plantarum PN0512 in the presence of isobutanol: −
[3]; 25° C.
  Concentration in which growth was observed: 3.5%
[3]; 30° C.
  Concentration in which growth was not observed: 3.3%
  Concentration in which growth was observed: 3.1%
[3]; 37° C.
  Concentration in which growth was not observed: 3.4%
  Concentration in which growth was observed: 3.1%
[3]; […] w/v, 25° C.
  Growth of L. plantarum PN0512 in the presence of isobutanol: +
[3]; […] w/v, 37° C.
  Growth of L. plantarum PN0512 in the presence of isobutanol: +
